In brackets after ≈: the same amount, converted by molar mass.

Broadly, the solubility is the dissolved amount per volume that the medium holds. High values mean much dissolved substance, low ones little dissolved substance.

Settings in the first data set: not given
Molecule `CC1=C(C(=O)O)N2C(=O)[C@@H](NC(=O)[C@H](N)C3=CCC=CC3)[C@H]2SC1` registered a solubility of 61 mM (≈ 21.3 mg/mL).

For the molecule `O=C(O)c1ccc(Cl)cc1Cl`, the solubility was found to be 2.5 mM (≈ 0.478 mg/mL).

As for `S=c1[nH]cnc2[nH]cnc12`, the solubility was determined as 450 mM (≈ 68.5 mg/mL).

Turning to `CCOP(=S)(OCC)OCCSCC`, the solubility was determined as 0.232 mM (≈ 0.06 mg/mL).

Consider `c1ccc(N=NNc2ccccc2)cc1`, for which the solubility was determined as 2.54 mM (≈ 0.5 mg/mL).

`N[C@@H](C(=O)N[C@@H]1C(=O)N2C(C(=O)O)=C(Cl)CS[C@H]12)c1ccccc1` returned a solubility of 27.2 mM (≈ 10 mg/mL).

In turn, `Nc1ccc(O)c2c1C(=O)c1ccccc1C2=O` yielded a solubility of 0.15 mM (≈ 0.0359 mg/mL).

Turning to `O=C(O)c1ccc(Br)cc1`, the solubility was determined as 0.298 mM (≈ 0.06 mg/mL).

The same data set, now with this note: 20 °C.
The molecule `Clc1ccc(-c2cccc(Cl)c2Cl)c(Cl)c1` gave a solubility of 0.000208 mM (≈ 6.08e-05 mg/mL).

In the case of `O=C(Nc1ccccc1)c1ccccc1I`, the solubility was 0.0619 mM (≈ 0.02 mg/mL).

`Clc1ccc(-c2cc(Cl)c(Cl)c(Cl)c2Cl)cc1Cl` registered a solubility of 1.48e-05 mM (≈ 5.33e-06 mg/mL). This solubility is about 4200-fold lower than that of the molecule before.

With `C#CC(C)N(C)C(=O)Nc1ccc(Cl)cc1` (configuration not stated), the solubility was 0.127 mM (≈ 0.03 mg/mL).

Molecule `CCOP(=O)(OCC)SCC(=O)NC(C)(C)C#N` showed a solubility of 238 mM (≈ 70 mg/mL). This solubility lies about 1900-fold higher than the previous one.

In the case of `Nc1ccc(S(=O)(=O)O)cc1`, the solubility worked out at 62.4 mM (≈ 10.8 mg/mL).

The molecule `OCCOc1ccccc1` showed a solubility of 193 mM (≈ 26.7 mg/mL).

In the case of `Clc1cccc(-c2ccccc2Cl)c1`, the solubility turned out to be 0.0026 mM (≈ 0.00058 mg/mL).

With `O=[N+]([O-])c1cc(Cl)c(Cl)cc1Cl`, the solubility was found to be 0.13 mM (≈ 0.0294 mg/mL).

In turn, `Cc1nc(NS(=O)(=O)c2ccc(N)cc2)oc1C` yielded a solubility of 6.27 mM (≈ 1.68 mg/mL).

Take `Clc1ccc(-c2ccc(Cl)c(Cl)c2Cl)cc1`: the solubility was determined as 0.000133 mM (≈ 3.89e-05 mg/mL).

For `Clc1ccc(Cl)c(-c2cc(Cl)c(Cl)c(Cl)c2)c1`, the solubility was determined as 4.84e-05 mM (≈ 1.58e-05 mg/mL).

On to `C[C@@]12C(=O)OC(=O)[C@]1(C)C1CCC2O1`, for which the solubility is 0.153 mM (≈ 0.03 mg/mL).

In turn, `C[C@H](CCC(=O)O)[C@H]1CC[C@H]2[C@@H]3[C@@H](O)C[C@@H]4C[C@H](O)CC[C@]4(C)[C@H]3CC[C@]12C` displayed a solubility of 0.108 mM (≈ 0.0424 mg/mL).

Regarding `CN(C)C(=O)Nc1ccc(Oc2ccc(Cl)cc2)cc1`, the solubility was found to be 0.0127 mM (≈ 0.0037 mg/mL). Compared with the last molecule, the solubility is about 8.5-fold lower.

In turn, `CCCCI` returned a solubility of 1.1 mM (≈ 0.202 mg/mL). This solubility lies about 87-fold higher than the previous one.

On to `C[C@H](CCC(=O)NCC(=O)O)[C@H]1CC[C@H]2[C@@H]3[C@H](O)C[C@@H]4C[C@H](O)CC[C@]4(C)[C@H]3C[C@H](O)[C@]12C`, for which the solubility is 0.00709 mM (≈ 0.0033 mg/mL).

As for `CSc1nc(N=[N+]=[N-])nc(NC(C)C)n1`, the solubility worked out at 0.244 mM (≈ 0.055 mg/mL).

On to `O=c1ccc2ccccc2[nH]1`, for which the solubility was 7.25 mM (≈ 1.05 mg/mL).

Turning to `O=[N+]([O-])c1cc(Cl)c(Cl)c(Cl)c1Cl`, the solubility is 0.028 mM (≈ 0.0073 mg/mL).

Molecule `Nc1ccc2cc3ccc(N)cc3nc2c1` had a solubility of 2390 mM (≈ 500 mg/mL).

The molecule `CCCCC(C)(C)CCC` displayed a solubility of 0.0155 mM (≈ 0.0022 mg/mL).

Still in this data set, the particulars now being: 21 °C.
For `CC12CCC(CC1)C(C)(C)O2`, the solubility was 17.2 mM (≈ 2.65 mg/mL).

The same data set, now with this note: 22 °C.
`O=C(c1ccccc1)c1c(O)cc(O)cc1O` came in with a solubility of 13.5 mM (≈ 3.1 mg/mL).

The data set is the same for the next values; noted with them: 23 °C.
`CC(=O)Nc1cc(NS(=O)(=O)C(F)(F)F)c(C)cc1C` gave a solubility of 0.58 mM (≈ 0.18 mg/mL).

Still in this data set, the particulars now being: 24 °C.
Regarding `O=NN1CCCCC1`, the solubility was 670 mM (≈ 76.5 mg/mL).

`CC(=O)OCCN1CCN(CCCN2c3ccccc3Sc3ccc(Cl)cc32)CC1` displayed a solubility of 0.02 mM (≈ 0.00892 mg/mL).

Molecule `COP(=S)(Oc1cc(Cl)c(Br)cc1Cl)c1ccccc1` (configuration not stated) had a solubility of 7.28e-05 mM (≈ 3e-05 mg/mL).

`CC(C)Oc1cc(-n2nc(C(C)(C)C)oc2=O)c(Cl)cc1Cl` yielded a solubility of 0.00203 mM (≈ 0.0007 mg/mL).

Molecule `CC(C)COC(=O)c1ccccc1C(=O)OCC(C)C` registered a solubility of 0.0223 mM (≈ 0.0062 mg/mL).

`CCN(CC)N=O` showed a solubility of 1040 mM (≈ 106 mg/mL).

Still in this data set, the particulars now being: 25 °C.
`Nc1ccc(S(=O)(=O)Nc2nccs2)cc1` yielded a solubility of 3.76 mM (≈ 0.96 mg/mL).

As to `CC1(C)C(=O)[C@@]2(C)CC[C@@H]1C2`, the solubility turned out to be 14.1 mM (≈ 2.15 mg/mL).

The molecule `C[C@@H]1CC[C@@]2(OC1)O[C@H]1C[C@H]3[C@@H]4CC=C5C[C@@H](O)CC[C@]5(C)[C@H]4CC[C@]3(C)[C@H]1[C@@H]2C` displayed a solubility of 4.82e-05 mM (≈ 2e-05 mg/mL).

In turn, `CCCCCCCC` came in with a solubility of 0.00578 mM (≈ 0.00066 mg/mL).

Turning to `CCCCCCCCCCCCCCCCCC`, the solubility was found to be 2.36e-05 mM (≈ 6e-06 mg/mL).

For the molecule `CCC#CCC`, the solubility was determined as 6.8 mM (≈ 0.559 mg/mL).

For `O=C(O)c1ccccc1`, the solubility turned out to be 24.8 mM (≈ 3.03 mg/mL).

For `CCCN(CCC)C(=O)SCC`, the solubility amounted to 1.98 mM (≈ 0.375 mg/mL). Against the preceding molecule, the solubility is about 13-fold lower.

As for `C1CCC2CCCCC2C1` (configuration not stated), the solubility came out at 0.00643 mM (≈ 0.000889 mg/mL).

In the case of `COc1ccc(C(O)(c2cncnc2)C2CC2)cc1` (configuration not stated), the solubility came out at 2.54 mM (≈ 0.65 mg/mL).

In turn, `C#CCCCC` yielded a solubility of 4.73 mM (≈ 0.388 mg/mL).

In turn, `CC(C)C(C)C` yielded a solubility of 0.261 mM (≈ 0.0225 mg/mL).

Turning to `O=S(=O)(O)CS(=O)(=O)O`, the solubility was determined as 8900 mM (≈ 1570 mg/mL).

`O=c1cc[nH]c(=O)[nH]1`: the solubility was 32.1 mM (≈ 3.6 mg/mL).

`CC(=O)[C@@]1(O)CC[C@H]2[C@@H]3C[C@H](C)C4=CC(=O)C=C[C@]4(C)[C@@]3(F)[C@@H](O)C[C@@]21C` displayed a solubility of 0.0797 mM (≈ 0.03 mg/mL).

Molecule `C[C@@H](O)C(N)=O` registered a solubility of 8780 mM (≈ 782 mg/mL).

On to `Nc1ncnc2[nH]cnc12`, for which the solubility is 7.62 mM (≈ 1.03 mg/mL).

For the molecule `COc1ccc2c(c1)c(CC(=O)O)c(C)n2C(=O)c1ccc(Cl)cc1`, the solubility worked out at 0.00262 mM (≈ 0.000937 mg/mL).

Molecule `CN1CC(O)N(c2nnc(C(C)(C)C)s2)C1=O` (configuration not stated) registered a solubility of 13.3 mM (≈ 3.4 mg/mL).

`O=C(O)c1ccccc1C(=O)Nc1cccc2ccccc12` gave a solubility of 0.687 mM (≈ 0.2 mg/mL).

With `Cc1ccnc2c1ccc1c(C)ccnc12`, the solubility is 0.107 mM (≈ 0.0224 mg/mL).

`Cc1ccccc1O` gave a solubility of 239 mM (≈ 25.9 mg/mL).

`CCc1cccc2ccccc12` gave a solubility of 0.0685 mM (≈ 0.0107 mg/mL).

Take `Fc1ccccc1Br`: the solubility was determined as 2.01 mM (≈ 0.353 mg/mL).

Regarding `O=C(O)COc1ccc(Cl)c(Cl)c1`, the solubility amounted to 2.07 mM (≈ 0.457 mg/mL).

In turn, `Cc1cccc2c1Cc1ccccc1-2` gave a solubility of 0.00605 mM (≈ 0.00109 mg/mL).

`Clc1cc(-c2cc(Cl)c(Cl)c(Cl)c2Cl)c(Cl)c(Cl)c1Cl` came in with a solubility of 6.33e-07 mM (≈ 2.72e-07 mg/mL). Against the preceding molecule, the solubility is about 9600-fold lower.

For the molecule `Oc1c2ccccc2cc2ccccc12`, the solubility is 0.0185 mM (≈ 0.00359 mg/mL).

With `CCC(O)(CC)CC`, the solubility worked out at 145 mM (≈ 16.8 mg/mL). This solubility is about 7800-fold higher than that of the molecule before.

In turn, `C1CCCC1` displayed a solubility of 2.22 mM (≈ 0.156 mg/mL).

Molecule `O=C(O)c1cccc(Cl)c1[N+](=O)[O-]` displayed a solubility of 2.33 mM (≈ 0.47 mg/mL).

Molecule `c1ccc2cc3cc4ccccc4cc3cc2c1` displayed a solubility of 6.61e-06 mM (≈ 1.51e-06 mg/mL). In other words, the single-digit nanomolar range.

Take `Cc1cccc2sc3nncn3c12`: the solubility stood at 8.45 mM (≈ 1.6 mg/mL).

On to `COP(=S)(NC(C)C)Oc1ccc(Cl)cc1Cl` (configuration not stated), for which the solubility came to 0.0159 mM (≈ 0.005 mg/mL). This solubility lies about 530-fold lower than the previous one.

Molecule `Cc1cc(C)cc(O)c1` had a solubility of 39.9 mM (≈ 4.88 mg/mL).

Molecule `CCC(C)(C)c1ccc(O)cc1` returned a solubility of 1.02 mM (≈ 0.168 mg/mL).

`C#CCCCC#C` registered a solubility of 17.5 mM (≈ 1.61 mg/mL).

In the case of `CCCCCCCI`, the solubility was 0.0155 mM (≈ 0.0035 mg/mL).

`CCCCCO` returned a solubility of 250 mM (≈ 22 mg/mL).

Molecule `CC(C)CCC(C)(C)C` came in with a solubility of 0.00897 mM (≈ 0.00115 mg/mL).

Molecule `Clc1ccc2c(c1)Oc1ccccc1O2` displayed a solubility of 0.00146 mM (≈ 0.000319 mg/mL).

`O=C(O)c1ccc([N+](=O)[O-])c([N+](=O)[O-])c1`: the solubility is 31.6 mM (≈ 6.7 mg/mL). This solubility lies about 22000-fold higher than the previous one.

The molecule `Clc1ccccc1-c1c(Cl)cc(Cl)c(Cl)c1Cl` had a solubility of 3.68e-05 mM (≈ 1.2e-05 mg/mL).

Consider `CCC(C)(C)C`, for which the solubility came to 0.214 mM (≈ 0.0184 mg/mL). Against the preceding molecule, the solubility is about 5800-fold higher.

`OCc1ccccc1` had a solubility of 370 mM (≈ 40 mg/mL).

For `CC(=O)Oc1ccccc1C(=O)O`, the solubility was 25.5 mM (≈ 4.6 mg/mL).

Regarding `O=C(O)c1cccc(Br)c1`, the solubility is 2 mM (≈ 0.402 mg/mL). Compared with the last molecule, the solubility is about 13-fold lower.

Consider `C=CCC1(C(C)CCC)C(=O)NC(=S)NC1=O` (configuration not stated), for which the solubility came out at 0.348 mM (≈ 0.0885 mg/mL).

Turning to `CCC(C)(C)CO`, the solubility amounted to 74.4 mM (≈ 7.6 mg/mL).

`O=C1NCCN1c1ncc([N+](=O)[O-])s1`: the solubility was 0.607 mM (≈ 0.13 mg/mL).

Staying with this data set, now noted: 30 °C.
In turn, `Cc1cccc([N+](=O)[O-])c1` showed a solubility of 3.65 mM (≈ 0.5 mg/mL).

As to `COc1ccccc1C(=O)O`, the solubility stood at 32.9 mM (≈ 5 mg/mL).

On to `CCOC(=O)C1(c2ccccc2)CCN(C)CC1`, for which the solubility worked out at 13 mM (≈ 3.22 mg/mL).

The record behind these values is the OPERA property sets (Mansouri et al. 2018).
